Test results reported in patent publication US10781184B2, “Substituted benzazinones as antibacterial compounds” (GlaxoSmithKline Intellectual Property Development Limited, priority 2015, dated 2020).
≈ marks a conversion by molar mass, not a printed value. Counter-ions that a name gives are not always drawn. Like-named read-outs stand apart in the source and are kept apart here.

Assays:
Assay in all cases: Minimum Inhibitory Concentration Assay (broth microdilution, CLSI)
Format in all cases: cell-based
E. coli 7623 = tested on: E. coli 7623
Experimental: (§1) Methods for dilution Antimicrobial Susceptibility TestS for Bacteria that Grow Aerobically; Approved Standard-Ninth Edition; M7-A9, Vol. 32 No. 2, Clinical and Laboratory Standards Institute, Wayne, Pa.; January 2012.
(§2) Performance Standards for Antimicrobial Susceptibility Testing; Twenty-Second Informational Supplement; M100-S22 Vol. 32 No. 3; Clinical and Laboratory Standards Institute, Wayne, Pa., January 2012.
(§3) Broth microdilution was performed in accordance with the CLSI recommended procedures for aerobic bacteria [CLSI, 2012].
(§4) Comparator compound stock solutions were prepared as recommended by CLSI [CLSI, 2012]. The stock solutions of novel GSK compounds were prepared at 512 mcg/mL by dissolving the compounds in dimethyl sulfoxide (DMSO) and diluting 1:10 with sterile water. The 512 mcg/mL stock was further serially diluted in the recommended broth media for the organisms being tested. Final DMSO concentration in test wells was less than 1%.
(§5) Microtitre plates were prepared using the Microlab STAR™ (Hamilton Co., Reno, Nev.) to add media (50 μL) and the Microlab AT Plus system (Hamilton Co., Reno, Nev.) to serially dilute the compounds (final concentration range 0.125 to 128 mcg/mL) and to add inoculum. A positive growth control well containing medium and the test isolate was included on each microtitre plate. Ten microliters of the test medium from the positive growth control well was plated to determine the purity of each test isolate. A microtitre mirror reader (Cooke Instruments, Ltd., England) was used to assist in determining the microdilution MIC endpoints. The MIC was determined as the lowest concentration of compound that inhibited visible growth of the organism.

K. pneumoniae 1161486 = tested on: K. pneumoniae 1161486
Experimental: as §1, §2, §3, §4, §5

P. aeruginosa PA01 = settings: Pseudomonas aeruginosa
Experimental: as §1, §2, §3, §4, §5

[1] = Escherichia coli, strain 7623, broth microdilution, read-out: E. coli 7623 MIC
[2] = Klebsiella pneumoniae, strain 1161486, broth microdilution, read-out: K. pneumoniae 1161486 MIC
[3] = strain PA01, broth microdilution, read-out: P. aeruginosa PA01 MIC
[4] = Escherichia coli, 7623, read-out: E. coli 7623 MIC (ug/mL)
[5] = Klebsiella pneumoniae, 1161486, read-out: K. pneumoniae 1161486 MIC (ug/mL)
[6] = PA01, read-out: P. aeruginosa PA01 MIC (ug/mL)

Structure (SMILES)	MIC (E. coli 7623; [1])	MIC (K. pneumoniae 1161486; [2])	MIC (P. aeruginosa PA01; [3])	MIC (E. coli 7623; [4])	MIC (K. pneumoniae 1161486; [5])	MIC (P. aeruginosa PA01; [6])
C[C@@](CCn1cnc2cc(-c3ccccc3)ccc2c1=O)(C(=O)NO)S(C)(=O)=O [Example 1, (R)—N-hydroxy-2-methyl-2-(methylsulfonyl)-4-(4-oxo-7-phenylquinazolin-3(4H)-yl)butanamide]	0.5 µg/mL (≈ 1.2 µM)	0.25 µg/mL (≈ 0.602 µM)	1 µg/mL (≈ 2.41 µM)			
Cc1ccc(-c2ccc3c(=O)n(CC[C@](C)(C(=O)NO)S(C)(=O)=O)cnc3c2)cc1 [Example 2, (R)—N-hydroxy-2-methyl-2-(methylsulfonyl)-4-(4-oxo-7-(p-tolyl)quinazolin-3(4H)-yl)butanamide]	0.06 µg/mL (≈ 0.14 µM)	0.125 µg/mL (≈ 0.291 µM)	0.5 µg/mL (≈ 1.16 µM)			
CN(C)c1ccc(-c2ccc3c(=O)n(CC[C@](C)(C(=O)NO)S(C)(=O)=O)cnc3c2)cc1 [Example 4, (R)-4-(7-(4-(dimethylamino)phenyl)-4-oxoquinazolin-3(4H)-yl)-N-hydroxy-2-methyl-2-(methylsulfonyl)butanamide Trifluoroacetic Acid Salt]				≤ 0.03 µg/mL	0.25 µg/mL	8 µg/mL
C[C@@](CCn1cnc2cc(-c3ccc(OC(F)F)cc3)ccc2c1=O)(C(=O)NO)S(C)(=O)=O [Example 5, (R)-4-(7-(4-(difluoromethoxy)phenyl)-4-oxoquinazolin-3(4H)-yl)-N-hydroxy-2-methyl-2-(methylsulfonyl)butanamide]	≤ 0.03 µg/mL	0.06 µg/mL (≈ 0.125 µM)	2 µg/mL (≈ 4.15 µM)			
C[C@@](CCn1cnc2cc(-c3cccc(F)c3F)ccc2c1=O)(C(=O)NO)S(C)(=O)=O [Example 6, (R)-4-(7-(2,3-difluorophenyl)-4-oxoquinazolin-3(4H)-yl)-N-hydroxy-2-methyl-2-(methylsulfonyl)butanamide]	≤ 0.032 µg/mL	0.125 µg/mL (≈ 0.277 µM)	0.5 µg/mL (≈ 1.11 µM)			
C[C@@](CCn1cnc2cc(-c3cc(F)ccc3F)ccc2c1=O)(C(=O)NO)S(C)(=O)=O [Example 7, (R)-4-(7-(2,5-difluorophenyl)-4-oxoquinazolin-3(4H)-yl)-N-hydroxy-2-methyl-2-(methylsulfonyl)butanamide]	0.06 µg/mL (≈ 0.133 µM)	0.25 µg/mL (≈ 0.554 µM)	2 µg/mL (≈ 4.43 µM)			
C[C@@](CCn1cnc2cc(-c3ccc(C(F)F)cc3)ccc2c1=O)(C(=O)NO)S(C)(=O)=O [Example 10, (R)-4-(7-(4-(difluoromethyl)phenyl)-4-oxoquinazolin-3(4H)-yl)-N-hydroxy-2-methyl-2-(methylsulfonyl)butanamide]	0.06 µg/mL (≈ 0.129 µM)	0.25 µg/mL (≈ 0.537 µM)	1 µg/mL (≈ 2.15 µM)			
COc1ccc(-c2cc(F)c3c(=O)n(CC[C@](C)(C(=O)NO)S(C)(=O)=O)cnc3c2)cc1 [Example 16, (2R)-4-[5-fluoro-7-(4-methoxyphenyl)-4-oxo-3,4-dihydroquinazolin-3-yl]-N-hydroxy-2-methanesulfonyl-2-methylbutanamide]	0.25 µg/mL (≈ 0.539 µM)	1 µg/mL (≈ 2.16 µM)	8 µg/mL (≈ 17.3 µM)			
Cc1ccc(-c2ccc3c(=O)n(CC[C@](C)(C(=O)NO)S(C)(=O)=O)nnc3c2)c(F)c1 [Example 19, (2R)-4-[7-(2-fluoro-4-methylphenyl)-4-oxo-3,4-dihydro-1,2,3-benzotriazin-3-yl]-N-hydroxy-2-methanesulfonyl-2-methylbutanamide]	0.125 µg/mL (≈ 0.279 µM)	0.25 µg/mL (≈ 0.557 µM)	8 µg/mL (≈ 17.8 µM)			
C[C@@](CCn1cnc2cc(-c3ccc(CN4CCOCC4)cc3)c(F)cc2c1=O)(C(=O)NO)S(C)(=O)=O [Example 20, (R)-4-(6-fluoro-7-(4-(morpholinomethyl)phenyl)-4-oxoquinazolin-3(4H)-yl)-N-hydroxy-2-methyl-2-(methylsulfonyl)butanamide hydrochloride]				0.125 µg/mL	0.25 µg/mL	4 µg/mL
C[C@@](CCn1cnc2cc(-c3ccc(CCN4CCOCC4)cc3)c(F)cc2c1=O)(C(=O)NO)S(C)(=O)=O [Example 21, (2R)-4-(6-fluoro-7-{4-[2-(morpholin-4-yl)ethyl]phenyl}-4-oxo-3,4-dihydroquinazolin-3-yl)-N-hydroxy-2-methanesulfonyl-2-methylbutanamide]	0.063 µg/mL (≈ 0.115 µM)	0.5 µg/mL (≈ 0.915 µM)	4 µg/mL (≈ 7.32 µM)			
CN(Cc1ccc(-c2cc3ncn(CC[C@](C)(C(=O)NO)S(C)(=O)=O)c(=O)c3cc2F)cc1)C1CC1 [Example 22, (2R)-4-[7-(4-{[cyclopropyl(methyl)amino]methyl}phenyl)-6-fluoro-4-oxo-3,4-dihydroquinazolin-3-yl]-N-hydroxy-2-methanesulfonyl-2-methylbutanamide]	< 0.03 µg/mL	0.25 µg/mL (≈ 0.484 µM)	8 µg/mL (≈ 15.5 µM)			
C[C@@](CCn1cnc2cc(-c3ccc(CNC4CC4)cc3F)c(F)cc2c1=O)(C(=O)NO)S(C)(=O)=O [Example 25, (2R)-4-(7-{4-[(cyclopropylamino)methyl]-2-fluorophenyl}-6-fluoro-4-oxo-3,4-dihydroquinazolin-3-yl)-N-hydroxy-2-methanesulfonyl-2-methylbutanamide]	0.063 µg/mL (≈ 0.121 µM)	0.5 µg/mL (≈ 0.961 µM)	1 µg/mL (≈ 1.92 µM)			
C[C@@](CCn1cnc2cc(-c3ccc(CN4CCOCC4)cc3F)c(F)cc2c1=O)(C(=O)NO)S(C)(=O)=O [Example 26, (2R)-4-(6-fluoro-7-{2-fluoro-4-[(morpholin-4-yl)methyl]phenyl}4-oxo-3,4-dihydroquinazolin-3-yl)-N-hydroxy-2-methanesulfonyl-2-methylbutanamide]	0.125 µg/mL (≈ 0.227 µM)	0.5 µg/mL (≈ 0.908 µM)	4 µg/mL (≈ 7.27 µM)			
C[C@@](CCn1cnc2cc(-c3ccc(CCO)cc3F)c(F)cc2c1=O)(C(=O)NO)S(C)(=O)=O [Example 27, (2R)-4-{6-fluoro-7-[2-fluoro-4-(2-hydroxyethyl)phenyl]-4-oxo-3,4-dihydroquinazolin-3-yl}-N-hydroxy-2-methanesulfonyl-2-methylbutanamide]	< 0.03 µg/mL	1 µg/mL (≈ 2.02 µM)	2 µg/mL (≈ 4.04 µM)			
Cc1c(-c2ccc(CN3CCOCC3)cc2)ccc2c(=O)n(CC[C@](C)(C(=O)NO)S(C)(=O)=O)cnc12 [Example 29, (2R)—N-hydroxy-2-methanesulfonyl-2-methyl-4-(8-methyl-7-{4-[(morpholin-4-yl)methyl]phenyl}-4-oxo-3,4-dihydroquinazolin-3-yl)butanamide]	0.5 µg/mL (≈ 0.946 µM)	0.5 µg/mL (≈ 0.946 µM)	4 µg/mL (≈ 7.57 µM)			

Further lines, with some results ahead:

MIC (E. coli 7623; [1])	MIC (K. pneumoniae 1161486; [2])	MIC (P. aeruginosa PA01; [3])	Structure (SMILES)	MIC (E. coli 7623; [4])	MIC (K. pneumoniae 1161486; [5])	MIC (P. aeruginosa PA01; [6])
≤ 0.03 µg/mL	0.125 µg/mL (≈ 0.288 µM)	0.5 µg/mL (≈ 1.15 µM)	C[C@@](CCn1cnc2cc(-c3ccccc3F)ccc2c1=O)(C(=O)NO)S(C)(=O)=O [Example 8, (R)-4-(7-(2-fluorophenyl)-4-oxoquinazolin-3(4H)-yl)-N-hydroxy-2-methyl-2-(methylsulfonyl)butanamide]			
≤ 0.03 µg/mL	0.125 µg/mL (≈ 0.279 µM)	8 µg/mL (≈ 17.9 µM)	Cc1ccc(-c2ccc3c(=O)n(CC[C@](C)(C(=O)NO)S(C)(=O)=O)cnc3c2)cc1F [Example 9, (R)-4-(7-(3-fluoro-4-methylphenyl)-4-oxoquinazolin-3(4H)-yl)-N-hydroxy-2-methyl-2-(methylsulfonyl)butanamide]			
< 0.03 µg/mL	0.063 µg/mL (≈ 0.141 µM)	0.5 µg/mL (≈ 1.12 µM)	Cc1ccc(-c2cc3ncn(CC[C@](C)(C(=O)NO)S(C)(=O)=O)c(=O)c3cc2F)cc1 [Example 15, (2R)-4-[6-fluoro-7-(4-methylphenyl)-4-oxo-3,4-dihydroquinazolin-3-yl]-N-hydroxy-2-methanesulfonyl-2-methylbutanamide]			
0.5 µg/mL (≈ 1.16 µM)	1 µg/mL (≈ 2.32 µM)	16 µg/mL (≈ 37.2 µM)	Cc1ccc(-c2ccc3c(=O)n(CC[C@](C)(C(=O)NO)S(C)(=O)=O)nnc3c2)cc1 [Example 18, (2R)—N-hydroxy-2-methanesulfonyl-2-methyl-4-[7-(4-methylphenyl)-4-oxo-3,4-dihydro-1,2,3-benzotriazin-3-yl]butanamide]			
0.25 µg/mL (≈ 0.452 µM)	0.5 µg/mL (≈ 0.905 µM)	4 µg/mL (≈ 7.24 µM)	COCCN(C)Cc1ccc(-c2cc3ncn(CC[C@](C)(C(=O)NO)S(C)(=O)=O)c(=O)c3cc2F)c(F)c1 [Example 23, (2R)-4-[6-fluoro-7-(2-fluoro-4-{[(2-methoxyethyl)(methyl)amino]methyl}phenyl)-4-oxo-3,4-dihydroquinazolin-3-yl]-N-hydroxy-2-methanesulfonyl-2-methylbutanamide]			
0.25 µg/mL (≈ 0.429 µM)	1 µg/mL (≈ 1.72 µM)	2 µg/mL (≈ 3.43 µM)	COC1CN(CCc2ccc(-c3cc4ncn(CC[C@](C)(C(=O)NO)S(C)(=O)=O)c(=O)c4cc3F)c(F)c2F)C1 [Example 24, (2R)-4-(7-{2,3-difluoro-4-[2-(3-methoxyazetidin-1-yl)ethyl]phenyl}-6-fluoro-4-oxo-3,4-dihydroquinazolin-3-yl)-N-hydroxy-2-methanesulfonyl-2-methylbutanamide]			
< 0.03 µg/mL	0.125 µg/mL (≈ 0.262 µM)	0.5 µg/mL (≈ 1.05 µM)	C[C@@](CCn1cnc2cc(-c3ccc(CCO)cc3)c(F)cc2c1=O)(C(=O)NO)S(C)(=O)=O [Example 28, (2R)-4-(6-fluoro-7-[4-(2-hydroxyethyl)phenyl]-4-oxo-3,4-dihydroquinazolin-3-yl)-N-hydroxy-2-methanesulfonyl-2-methylbutanamide]			
